How the values were obtained:
Test in all cases: radiometric filter-binding kinase assay
PIM1 (human) = PIM1 (human) (UniProt P11309)
DYRK3 (human) = DYRK3 (human) (UniProt O43781)
CHEK2 (human) = CHEK2 (human) (UniProt O96017)
MYLK (human) = MYLK (human) (UniProt Q15746)
EPHB1 (human) = EPHB1 (human) (UniProt P54762)
IKBKE (human) = IKBKE (human) (UniProt Q14164)
DYRK2 (human) = DYRK2 (human) (UniProt Q92630)
MAPKAPK2 (human) = MAPKAPK2 (human) (UniProt P49137)
MAPKAPK5 (human) = MAPKAPK5 (human) (UniProt Q8IW41)
PIM3 (human) = PIM3 (human) (UniProt Q86V86)
NEK2 (human) = NEK2 (human) (UniProt P51955)
[1] = test system: SGK1 (human), O00141 [S422D]
Sequence of SGK1 (human), O00141 [S422D] (O00141 whole entry S422D, looked up): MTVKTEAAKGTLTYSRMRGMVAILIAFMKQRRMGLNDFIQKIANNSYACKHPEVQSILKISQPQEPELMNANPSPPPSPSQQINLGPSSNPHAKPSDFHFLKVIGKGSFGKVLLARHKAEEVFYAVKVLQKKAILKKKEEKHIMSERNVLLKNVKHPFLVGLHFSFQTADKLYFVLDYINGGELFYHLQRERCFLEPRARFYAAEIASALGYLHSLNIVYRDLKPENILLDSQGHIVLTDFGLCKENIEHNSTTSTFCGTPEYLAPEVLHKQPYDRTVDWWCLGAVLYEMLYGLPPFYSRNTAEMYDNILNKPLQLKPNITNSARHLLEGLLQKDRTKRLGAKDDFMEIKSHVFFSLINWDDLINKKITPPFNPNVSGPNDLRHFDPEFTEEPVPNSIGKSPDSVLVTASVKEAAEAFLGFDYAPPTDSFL

MARK2 (human) = MARK2 (human) (UniProt Q7KZI7)
EPHB2 (human) = EPHB2 (human) (UniProt P29323)
STK3 (human) = STK3 (human) (UniProt Q13188)
MARK1 (human) = MARK1 (human) (UniProt Q9P0L2)
Sequence of MARK1 (human) (Q9P0L2 whole entry, looked up): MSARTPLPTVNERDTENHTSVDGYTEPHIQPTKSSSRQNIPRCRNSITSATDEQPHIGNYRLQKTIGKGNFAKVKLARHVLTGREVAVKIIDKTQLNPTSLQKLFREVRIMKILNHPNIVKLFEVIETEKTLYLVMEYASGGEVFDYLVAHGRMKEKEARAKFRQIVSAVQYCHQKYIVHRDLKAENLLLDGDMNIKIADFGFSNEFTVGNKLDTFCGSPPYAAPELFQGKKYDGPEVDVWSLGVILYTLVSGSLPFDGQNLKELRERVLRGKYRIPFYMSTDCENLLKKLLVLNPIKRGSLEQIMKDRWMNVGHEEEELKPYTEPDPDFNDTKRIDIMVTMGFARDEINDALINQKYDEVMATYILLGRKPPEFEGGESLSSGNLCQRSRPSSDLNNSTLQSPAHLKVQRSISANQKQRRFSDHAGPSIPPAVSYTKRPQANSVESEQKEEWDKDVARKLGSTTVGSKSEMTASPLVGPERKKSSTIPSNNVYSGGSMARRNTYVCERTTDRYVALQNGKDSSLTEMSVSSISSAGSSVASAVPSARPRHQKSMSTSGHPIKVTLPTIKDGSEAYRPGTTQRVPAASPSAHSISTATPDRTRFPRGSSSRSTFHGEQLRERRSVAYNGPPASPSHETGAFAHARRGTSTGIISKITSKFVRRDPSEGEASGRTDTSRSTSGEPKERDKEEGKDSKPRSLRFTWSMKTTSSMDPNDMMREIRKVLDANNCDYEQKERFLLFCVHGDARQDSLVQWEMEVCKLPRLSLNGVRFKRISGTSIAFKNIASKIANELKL

[2] = test system: RPS6KB1 (human), P23443 [T412E]
MAP3K7 TAB1 (human) = MAP3K7 TAB1 (human) (UniProt Q15750+O43318)
Sequence of MAP3K7 TAB1 (human) (O43318 whole entry, looked up): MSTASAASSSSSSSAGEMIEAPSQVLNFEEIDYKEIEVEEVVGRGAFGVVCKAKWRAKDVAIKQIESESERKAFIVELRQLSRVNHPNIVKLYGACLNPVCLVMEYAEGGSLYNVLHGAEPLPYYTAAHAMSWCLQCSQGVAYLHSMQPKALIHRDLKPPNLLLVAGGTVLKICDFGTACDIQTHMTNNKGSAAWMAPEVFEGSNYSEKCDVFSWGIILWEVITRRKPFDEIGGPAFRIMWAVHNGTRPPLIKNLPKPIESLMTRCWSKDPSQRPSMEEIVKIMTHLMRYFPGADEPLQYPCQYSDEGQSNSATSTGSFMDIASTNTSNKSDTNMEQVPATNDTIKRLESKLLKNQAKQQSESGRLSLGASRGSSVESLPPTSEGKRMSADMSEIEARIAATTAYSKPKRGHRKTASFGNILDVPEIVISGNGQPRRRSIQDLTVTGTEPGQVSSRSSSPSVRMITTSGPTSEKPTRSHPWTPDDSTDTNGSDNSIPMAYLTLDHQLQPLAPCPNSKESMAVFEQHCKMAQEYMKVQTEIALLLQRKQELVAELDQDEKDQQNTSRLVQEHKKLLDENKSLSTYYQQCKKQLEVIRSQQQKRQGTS
Sequence of MAP3K7 TAB1 (human) (Q15750 whole entry, looked up): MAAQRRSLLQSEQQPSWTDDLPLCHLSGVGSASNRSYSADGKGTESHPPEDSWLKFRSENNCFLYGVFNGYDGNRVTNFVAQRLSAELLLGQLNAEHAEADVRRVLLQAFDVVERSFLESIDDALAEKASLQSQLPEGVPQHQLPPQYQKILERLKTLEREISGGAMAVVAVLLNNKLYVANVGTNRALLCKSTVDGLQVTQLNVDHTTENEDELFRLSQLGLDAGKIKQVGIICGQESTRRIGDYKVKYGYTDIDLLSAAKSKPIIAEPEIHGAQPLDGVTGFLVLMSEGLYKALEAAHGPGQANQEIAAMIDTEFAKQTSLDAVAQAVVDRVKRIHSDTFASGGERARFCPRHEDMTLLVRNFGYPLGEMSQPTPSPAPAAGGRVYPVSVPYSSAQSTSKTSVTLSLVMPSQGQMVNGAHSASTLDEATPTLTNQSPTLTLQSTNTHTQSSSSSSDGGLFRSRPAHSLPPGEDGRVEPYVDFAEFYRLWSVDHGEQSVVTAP

HIPK2 (human) = HIPK2 (human) (UniProt Q9H2X6)
FLT1 (human) = FLT1 (human) (UniProt P17948)
Sequence of FLT1 (human) (P17948 whole entry, looked up): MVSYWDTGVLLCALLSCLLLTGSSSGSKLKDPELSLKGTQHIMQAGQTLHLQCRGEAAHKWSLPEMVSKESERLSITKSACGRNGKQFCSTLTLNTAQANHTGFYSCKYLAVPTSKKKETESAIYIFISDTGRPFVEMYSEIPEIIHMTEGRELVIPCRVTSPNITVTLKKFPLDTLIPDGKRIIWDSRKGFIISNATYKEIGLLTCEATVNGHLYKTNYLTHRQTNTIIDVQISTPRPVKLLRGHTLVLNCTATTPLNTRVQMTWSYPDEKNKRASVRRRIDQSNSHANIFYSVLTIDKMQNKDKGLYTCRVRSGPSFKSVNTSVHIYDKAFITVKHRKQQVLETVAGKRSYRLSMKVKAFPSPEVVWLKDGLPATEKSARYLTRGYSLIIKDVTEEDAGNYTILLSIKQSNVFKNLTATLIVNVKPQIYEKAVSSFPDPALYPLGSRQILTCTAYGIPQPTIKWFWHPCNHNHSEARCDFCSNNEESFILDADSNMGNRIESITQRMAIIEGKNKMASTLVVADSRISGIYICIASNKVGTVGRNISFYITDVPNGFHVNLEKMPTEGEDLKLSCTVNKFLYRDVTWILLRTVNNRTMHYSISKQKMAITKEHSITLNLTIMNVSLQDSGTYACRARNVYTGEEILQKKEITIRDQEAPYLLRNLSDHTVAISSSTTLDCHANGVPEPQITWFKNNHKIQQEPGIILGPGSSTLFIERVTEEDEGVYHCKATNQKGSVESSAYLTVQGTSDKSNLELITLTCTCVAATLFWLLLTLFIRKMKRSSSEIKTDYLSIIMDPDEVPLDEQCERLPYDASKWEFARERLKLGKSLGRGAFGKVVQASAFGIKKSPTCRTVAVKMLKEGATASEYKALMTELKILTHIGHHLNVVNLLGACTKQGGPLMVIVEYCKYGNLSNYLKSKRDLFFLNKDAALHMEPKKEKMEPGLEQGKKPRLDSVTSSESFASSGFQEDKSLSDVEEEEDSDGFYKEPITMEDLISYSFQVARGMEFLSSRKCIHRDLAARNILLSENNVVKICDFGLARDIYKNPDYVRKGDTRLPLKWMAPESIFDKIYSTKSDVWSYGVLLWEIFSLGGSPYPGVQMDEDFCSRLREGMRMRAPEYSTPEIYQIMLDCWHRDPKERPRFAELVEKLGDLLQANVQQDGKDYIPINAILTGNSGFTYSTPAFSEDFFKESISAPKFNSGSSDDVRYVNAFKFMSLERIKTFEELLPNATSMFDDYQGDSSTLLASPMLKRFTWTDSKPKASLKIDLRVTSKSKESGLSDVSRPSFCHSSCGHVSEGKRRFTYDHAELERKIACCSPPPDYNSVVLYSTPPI

CLK2 (human) = CLK2 (human) (UniProt P49760)
EPHB4 (human) = EPHB4 (human) (UniProt P54760)
PKN2 (human) = PKN2 (human) (UniProt Q16513)
GCK (human) = GCK (human) (UniProt Q12851)
ROCK2 (rat) = conditions: accession and sequence are those of the human protein
MELK (human) = MELK (human) (UniProt Q14680)
MAPK14 (human) = MAPK14 (human) (UniProt Q16539)
Sequence of MAPK14 (human) (Q16539 whole entry, looked up): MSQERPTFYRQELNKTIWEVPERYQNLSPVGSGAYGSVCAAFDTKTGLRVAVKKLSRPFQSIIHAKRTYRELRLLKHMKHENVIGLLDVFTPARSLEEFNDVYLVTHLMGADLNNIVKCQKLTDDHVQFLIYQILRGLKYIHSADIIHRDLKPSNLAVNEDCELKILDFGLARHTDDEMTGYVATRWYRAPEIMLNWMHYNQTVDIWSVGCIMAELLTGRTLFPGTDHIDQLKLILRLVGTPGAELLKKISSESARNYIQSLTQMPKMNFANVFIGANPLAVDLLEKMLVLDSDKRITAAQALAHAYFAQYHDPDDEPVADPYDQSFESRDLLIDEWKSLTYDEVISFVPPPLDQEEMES

RPS6KA1 KD1 KD2 (human) = RPS6KA1 KD1 KD2 (human) (UniProt Q15418)
TAOK1 (human) = TAOK1 (human) (UniProt Q7L7X3)
EPHA2 (human) = EPHA2 (human) (UniProt P29317)
MAPK12 (human) = MAPK12 (human) (UniProt P53778)
DAPK1 (human) = DAPK1 (human) (UniProt P53355)
TTK (human) = TTK (human) (UniProt P33981)
IRAK4 (human) = IRAK4 (human) (UniProt Q9NWZ3)
PRKCA (human) = PRKCA (human) (UniProt P17252)

Sequence of MAPKAPK2 (human) (P49137 whole entry, looked up): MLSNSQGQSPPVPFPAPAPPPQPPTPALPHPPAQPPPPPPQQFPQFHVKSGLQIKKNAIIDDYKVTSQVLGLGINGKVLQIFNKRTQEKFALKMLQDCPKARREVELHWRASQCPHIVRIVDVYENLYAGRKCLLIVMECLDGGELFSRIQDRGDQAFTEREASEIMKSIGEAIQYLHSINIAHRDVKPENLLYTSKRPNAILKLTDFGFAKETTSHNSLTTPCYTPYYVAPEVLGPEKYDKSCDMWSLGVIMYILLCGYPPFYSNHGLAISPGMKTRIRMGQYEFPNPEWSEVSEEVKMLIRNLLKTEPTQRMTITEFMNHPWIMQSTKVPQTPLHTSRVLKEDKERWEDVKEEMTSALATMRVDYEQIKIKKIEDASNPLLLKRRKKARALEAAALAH
Sequence of DYRK3 (human) (O43781 whole entry, looked up): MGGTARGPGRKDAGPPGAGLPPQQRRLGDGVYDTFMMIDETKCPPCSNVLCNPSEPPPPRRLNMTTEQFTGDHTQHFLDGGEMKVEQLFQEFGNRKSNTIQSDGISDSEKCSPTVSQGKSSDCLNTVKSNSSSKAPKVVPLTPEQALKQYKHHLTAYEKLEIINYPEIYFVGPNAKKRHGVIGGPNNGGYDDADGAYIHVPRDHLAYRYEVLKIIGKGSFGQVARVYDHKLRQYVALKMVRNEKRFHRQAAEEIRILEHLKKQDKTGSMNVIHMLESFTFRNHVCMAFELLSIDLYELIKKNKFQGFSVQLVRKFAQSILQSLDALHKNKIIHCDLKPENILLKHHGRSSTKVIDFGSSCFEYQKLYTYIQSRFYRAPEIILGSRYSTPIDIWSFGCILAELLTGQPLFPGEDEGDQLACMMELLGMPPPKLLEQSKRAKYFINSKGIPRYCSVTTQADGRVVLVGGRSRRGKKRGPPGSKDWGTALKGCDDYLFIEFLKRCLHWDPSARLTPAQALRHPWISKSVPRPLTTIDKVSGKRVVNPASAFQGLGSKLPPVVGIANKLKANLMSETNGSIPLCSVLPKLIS

residual activity (PIM1 (human); compound 0.1 µM): 102%
residual activity (PIM1 (human); compound 1.0 µM): 93%
residual activity (PIM1 (human); compound 10.0 µM): 68%
residual activity (DYRK3 (human); compound 0.1 µM): 98%
residual activity (DYRK3 (human); compound 1.0 µM): 89%
residual activity (DYRK3 (human); compound 10.0 µM): 81%
residual activity (CHEK2 (human); compound 0.1 µM): 122%
residual activity (CHEK2 (human); compound 1.0 µM): 81%
residual activity (CHEK2 (human); compound 10.0 µM): 39%
residual activity (MYLK (human); compound 0.1 µM): 87%
residual activity (MYLK (human); compound 1.0 µM): 85%
residual activity (MYLK (human); compound 10.0 µM): 72%
residual activity (EPHB1 (human); compound 0.1 µM): 96%
residual activity (EPHB1 (human); compound 1.0 µM): 109%
residual activity (EPHB1 (human); compound 10.0 µM): 100%
residual activity (IKBKE (human); compound 0.1 µM): 88%
residual activity (IKBKE (human); compound 1.0 µM): 90%
residual activity (IKBKE (human); compound 10.0 µM): 91%
residual activity (DYRK2 (human); compound 0.1 µM): 96%
residual activity (DYRK2 (human); compound 1.0 µM): 96%
residual activity (DYRK2 (human); compound 10.0 µM): 87%
residual activity (MAPKAPK2 (human); compound 0.1 µM): 99%
residual activity (MAPKAPK2 (human); compound 1.0 µM): 110%
residual activity (MAPKAPK2 (human); compound 10.0 µM): 88%
residual activity (MAPKAPK5 (human); compound 0.1 µM): 81%
residual activity (MAPKAPK5 (human); compound 10.0 µM): 102%
residual activity (PIM3 (human); compound 0.1 µM): 89%
residual activity (PIM3 (human); compound 1.0 µM): 83%
residual activity (PIM3 (human); compound 10.0 µM): 51%
residual activity (NEK2 (human); compound 0.1 µM): 95%
residual activity (NEK2 (human); compound 1.0 µM): 87%
residual activity (NEK2 (human); compound 10.0 µM): 87%
residual activity ([1]; compound 0.1 µM): 90%
residual activity ([1]; compound 1.0 µM): 85%
residual activity ([1]; compound 10.0 µM): 63%
residual activity (MARK2 (human); compound 0.1 µM): 102%
residual activity (MARK2 (human); compound 1.0 µM): 97%
residual activity (MARK2 (human); compound 10.0 µM): 94%
residual activity (EPHB2 (human); compound 0.1 µM): 107%
residual activity (EPHB2 (human); compound 1.0 µM): 93%
residual activity (EPHB2 (human); compound 10.0 µM): 74%
residual activity (STK3 (human); compound 0.1 µM): 79%
residual activity (STK3 (human); compound 1.0 µM): 97%
residual activity (STK3 (human); compound 10.0 µM): 94%
residual activity (MARK1 (human); compound 0.1 µM): 113%
residual activity (MARK1 (human); compound 1.0 µM): 88%
residual activity (MARK1 (human); compound 10.0 µM): 98%
residual activity ([2]; compound 0.1 µM): 84%
residual activity ([2]; compound 1.0 µM): 84%
residual activity ([2]; compound 10.0 µM): 84%
residual activity (MAP3K7 TAB1 (human); compound 0.1 µM): 81%
residual activity (MAP3K7 TAB1 (human); compound 1.0 µM): 107%
residual activity (MAP3K7 TAB1 (human); compound 10.0 µM): 49%
residual activity (HIPK2 (human); compound 0.1 µM): 102%
residual activity (HIPK2 (human); compound 1.0 µM): 97%
residual activity (HIPK2 (human); compound 10.0 µM): 80%
residual activity (FLT1 (human); compound 0.1 µM): 88%
residual activity (FLT1 (human); compound 1.0 µM): 81%
residual activity (FLT1 (human); compound 10.0 µM): 53%
residual activity (CLK2 (human); compound 0.1 µM): 103%
residual activity (CLK2 (human); compound 1.0 µM): 81%
residual activity (CLK2 (human); compound 10.0 µM): 67%
residual activity (EPHB4 (human); compound 0.1 µM): 101%
residual activity (EPHB4 (human); compound 1.0 µM): 105%
residual activity (EPHB4 (human); compound 10.0 µM): 86%
residual activity (PKN2 (human); compound 0.1 µM): 95%
residual activity (PKN2 (human); compound 1.0 µM): 96%
residual activity (PKN2 (human); compound 10.0 µM): 92%
residual activity (GCK (human); compound 0.1 µM): 108%
residual activity (GCK (human); compound 1.0 µM): 97%
residual activity (GCK (human); compound 10.0 µM): 85%
residual activity (ROCK2 (rat); compound 0.1 µM): 85%
residual activity (ROCK2 (rat); compound 1.0 µM): 87%
residual activity (ROCK2 (rat); compound 10.0 µM): 91%
residual activity (MELK (human); compound 0.1 µM): 80%
residual activity (MELK (human); compound 1.0 µM): 75%
residual activity (MELK (human); compound 10.0 µM): 80%
residual activity (MAPK14 (human); compound 0.1 µM): 110%
residual activity (MAPK14 (human); compound 1.0 µM): 97%
residual activity (MAPK14 (human); compound 10.0 µM): 101%
residual activity (RPS6KA1 KD1 KD2 (human); compound 0.1 µM): 101%
residual activity (RPS6KA1 KD1 KD2 (human); compound 1.0 µM): 87%
residual activity (RPS6KA1 KD1 KD2 (human); compound 10.0 µM): 62%
residual activity (TAOK1 (human); compound 0.1 µM): 104%
residual activity (TAOK1 (human); compound 1.0 µM): 90%
residual activity (TAOK1 (human); compound 10.0 µM): 85%
residual activity (EPHA2 (human); compound 0.1 µM): 86%
residual activity (EPHA2 (human); compound 1.0 µM): 95%
residual activity (EPHA2 (human); compound 10.0 µM): 87%
residual activity (MAPK12 (human); compound 0.1 µM): 94%
residual activity (MAPK12 (human); compound 1.0 µM): 94%
residual activity (MAPK12 (human); compound 10.0 µM): 101%
residual activity (DAPK1 (human); compound 0.1 µM): 85%
residual activity (DAPK1 (human); compound 1.0 µM): 90%
residual activity (DAPK1 (human); compound 10.0 µM): 48%
residual activity (TTK (human); compound 0.1 µM): 106%
residual activity (TTK (human); compound 1.0 µM): 105%
residual activity (TTK (human); compound 10.0 µM): 80%
residual activity (IRAK4 (human); compound 0.1 µM): 106%
residual activity (IRAK4 (human); compound 1.0 µM): 92%
residual activity (IRAK4 (human); compound 10.0 µM): 99%
residual activity (PRKCA (human); compound 0.1 µM): 97%
residual activity (PRKCA (human); compound 1.0 µM): 94%
residual activity (PRKCA (human); compound 10.0 µM): 98%
Structure (SMILES): NC1(c2ccc(-c3nc4ccn5c(=O)[nH]nc5c4cc3-c3ccccc3)cc2)CCC1

Reference: the kinase profiling compilation of Christmann-Franck et al. (2016)
